Laboratory results: article PMC8070018, “Human Lanosterol 14-Alpha Demethylase (CYP51A1) Is a Putative Target for Natural Flavonoid Luteolin 7,3′-Disulfate” (Molecules, 2021)
Read-outs that look alike come from different tables or passages of the source. Values belong to the compound of their own block, whether it stands above or below them.

Key:
human CYP51A1 [1] = target: T1, human CYP51A1 (Homo sapiens, UniProt Q16850); experiment: Surface plasmon resonance binding to immobilized CYP51A1; settings: SPR; for Kd: immobilized CYP51A1, read-out: Kd (equilibrium dissociation constant)
T1 construct: made in house
T1 sequence (Q16850 1-509): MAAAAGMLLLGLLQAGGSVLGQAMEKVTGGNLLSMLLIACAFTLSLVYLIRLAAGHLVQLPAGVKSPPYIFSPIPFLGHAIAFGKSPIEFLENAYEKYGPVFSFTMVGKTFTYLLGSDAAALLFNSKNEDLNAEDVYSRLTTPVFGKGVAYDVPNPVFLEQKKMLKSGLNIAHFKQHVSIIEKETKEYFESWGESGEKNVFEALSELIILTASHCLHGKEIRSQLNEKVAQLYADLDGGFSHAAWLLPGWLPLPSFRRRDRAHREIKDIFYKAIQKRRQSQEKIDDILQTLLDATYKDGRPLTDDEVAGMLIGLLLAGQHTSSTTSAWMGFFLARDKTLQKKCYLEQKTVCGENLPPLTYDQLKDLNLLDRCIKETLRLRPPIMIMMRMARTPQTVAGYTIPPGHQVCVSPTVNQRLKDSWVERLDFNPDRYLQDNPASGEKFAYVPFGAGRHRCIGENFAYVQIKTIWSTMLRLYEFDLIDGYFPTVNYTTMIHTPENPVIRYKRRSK

[2] = target: T2, human CYP51A1 (lanosterol 14α-demethylase) (Homo sapiens, UniProt Q16850); experiment: Lanosterol 14α-demethylase activity of CYP51A1 in the reconstituted system; assay type: biochemical; settings: for Relative Activity: CYP51A1 0.5 μM, CPR 2.0 μM, lanosterol 50 μM
T2 construct: made in house
T2 sequence (Q16850 1-509): T1 sequence (Q16850 1-509)

human CYP51A1 [3] = target: T1, human CYP51A1; experiment: Spectrophotometric titration (difference spectra) of CYP51A1 in the presence of lanosterol; assay type: binding; settings: for spectral response in the difference spectrum of CYP51A1: titration in the presence of lanosterol, baicalein and luteolin 7,3′-disulfate up to 30 μM, luteolin up to 15 μM; for Kd: spectral titration, CYP51A1 4 μM, lanosterol 5 μM, pH 7.4, room temperature, read-out: apparent dissociation constant (Kdapp)
Method: Spectrophotometric titration was used to determine the apparent dissociation constants (Kdapp) for the enzyme–ligand complexes. The spectral measurements were performed on Cary Series UV-Vis-NIR (Agilent Technologies, Santa Clara, CA, USA) spectrophotometer using tandem quartz cuvettes (1 cm optical path) to exclude the absorption of ligands. Natural substrate, lanosterol, at final concentration 5 μM was added before the titration to the CYP51A1 (final concentration 4 μM) in 50 mM potassium phosphate buffer, pH 7.4. […] The difference spectra were recorded after each addition of ligand at room temperature in the range of 350–500 nm. The apparent dissociation constants were determined by plotting the absorbance changes in the difference spectra versus the concentration of free ligand and evaluated by using the Hill equation (OriginPro 8.1 statistical data analysis package): Aobs=Amax×(S×n/Kdapp×n+S×n), where Aobs—the observed change in the absorption, Amax—the absorbance change at ligand saturation, Kdapp—the apparent dissociation constant for the ligand–enzyme complex, S—the ligand concentration, n—a Hill coefficient.

human CYP51A1 [4] = target: T1, human CYP51A1; settings: cited from earlier work; for affinity: direct coordination with heme iron; for Kd: read-out: Kdapp
CYP3A4 = settings: cited from earlier work
CYP2C19 = settings: cited from earlier work
CYP2C9 = tested on: CYP2C9; design: method as in PMID 32661014; settings: comparable to positive control sulfaphenazole; cited from earlier work
CYP1A, CYP2B and CYP3A4 = settings: range over CYP1A; cited from earlier work
CYP2D6 = tested on: CYP2D6; design: method as in PMID 32942157; settings: 20 μM luteolin; cited from earlier work
[5] = tested on: CYP1A2, CYP3A, CYP2B6, CYP2E1 and CYP2D6; design: method as in PMID 28872689, PMID 18191104; settings: range over CYP1A2, CYP3A; cited from earlier work
[6] = 25 °C, Langmuir 1:1 model, n = 3, read-out: koff (dissociation rate constant)
[7] = 25 °C, Langmuir 1:1 model, n = 3, read-out: kon (association rate constant)
[8] = concentration-dependent, up to 30 μM
[9] = 25 °C, Two state reaction model, n = 3

- koff (human CYP51A1 [1]; [6]): 0.00084 s⁻¹
- kon (human CYP51A1 [1]; [7]): 294 M⁻¹ s⁻¹
- Kd (human CYP51A1 [1]; 25 °C): 2.9 µM
- association rate of the CYP51A1 complex compared to lanosterol (human CYP51A1 [1]; relative to complex formation with lanosterol): seven times faster
- dissociation rate of the CYP51A1 complex compared to lanosterol (human CYP51A1 [1]; relative to complex with lanosterol): about eight times higher
- Relative Activity ([2]; compound 25 μM): 49.9%
- inhibition at 25 µM ([2]; compound 25 μM, read-out: level of inhibition): 50.1%
- IC50 ([2]; reconstituted system, 5, 10, 25, 50 and 100 μM tested, read-out: apparent IC50): > 25 µM
SMILES: O=c1cc(-c2ccc(O)c(OS(=O)(=O)O)c2)oc2cc(OS(=O)(=O)O)cc(O)c12 [luteolin 7,3′-disulfate]
- spectral response in the difference spectrum of CYP51A1 (human CYP51A1 [3]): does not cause changes in the difference spectrum

SMILES: Clc1ccc(COC(Cn2ccnc2)c2ccc(Cl)cc2Cl)cc1 (stereo not drawn) [econazole]
- affinity (human CYP51A1 [4]): submicromolar range

SMILES: C[C@]12CC[C@H](O)CC1=CC[C@@H]1[C@@H]2CC[C@]2(C)C(c3cccnc3)=CC[C@@H]12 [abiraterone]
- Kd (human CYP51A1 [4]): 22 µM

SMILES: O=c1c(O)c(-c2ccc(O)c(OS(=O)(=O)O)c2)oc2cc(O)cc(O)c12 [quercetin 3′-sulfate]
- inhibition effect (CYP3A4; [8]): ≤ 50%
- inhibition effect (CYP2C19; [8]): ≤ 50%

SMILES: O=c1cc(-c2ccccc2)oc2cc(OS(=O)(=O)O)cc(O)c12 [chrysin 7-sulfate]
- inhibition effect (CYP3A4): slight inhibition effect
- inhibition effect (CYP2C19): slight inhibition effect
- IC50 (CYP2C9): 2.7 µM

SMILES: O=c1cc(-c2ccccc2)oc2cc(O)c(O)c(O)c12 [baicalein]
- Kd (human CYP51A1 [1]; 25 °C): 12.5 µM
- Kd (human CYP51A1 [3]): 8.2 ± 0.4 µM
- spectral response in the difference spectrum of CYP51A1 (human CYP51A1 [3]): reverse type I spectral response
- IC50 (CYP1A, CYP2B and CYP3A4): 0.5 to 36 µM

SMILES: C[C@]12CC[C@H](O)CC1=CC[C@@H]1[C@@H]2CC[C@]2(C)C(n3cnc4ccccc43)=CC[C@@H]12 [galeterone]
- Kd (human CYP51A1 [4]): 16 µM

SMILES: CC(C)=CCC[C@@H](C)[C@H]1CC[C@@]2(C)C3=C(CC[C@]12C)[C@@]1(C)CC[C@H](O)C(C)(C)[C@@H]1CC3 [lanosterol]
- koff (human CYP51A1 [1]; [6]): 0.0001 s⁻¹
- kon (human CYP51A1 [1]; [7]): 41.4 M⁻¹ s⁻¹
- Kd (human CYP51A1 [1]; 25 °C): 2.4 µM

SMILES: CCCN(CCc1ccc(Cl)c(Cl)c1)CC(O)c1cccnc1 (stereo not drawn) [LK-935, 2-((3,4-Dichlorophenethyl)(Propyl)Amino)-1-(Pyridin-3-Yl)Ethanol]
- affinity (human CYP51A1 [4]): submicromolar range

- koff2 (backward rate constant for CP ↔ CP* transition) (human CYP51A1 [1]; [9]): koff2 (1/s × 10^−4) = 14 ± 2
- kon2 (forward rate constant for CP ↔ CP* transition) (human CYP51A1 [1]; [9]): kon2 (1/s × 10^−4) = 33 ± 4
- koff (human CYP51A1 [1]; 25 °C, Two state reaction model, n = 3, read-out: koff1 (dissociation rate constant)): 0.019 s⁻¹
- kon (human CYP51A1 [1]; 25 °C, Two state reaction model, n = 3, read-out: kon1 (association rate constant)): 282 M⁻¹ s⁻¹
- Kd (human CYP51A1 [1]; 25 °C): 20 µM
- Relative Activity ([2]; compound 25 μM): 92.6%
- Kd (human CYP51A1 [3]): 5.1 ± 0.5 µM
- spectral response in the difference spectrum of CYP51A1 (human CYP51A1 [3]): reverse type I spectral response
SMILES: O=c1cc(-c2ccc(O)c(O)c2)oc2cc(O)cc(O)c12 [luteolin]
- O-demethylation of 3-[2-(N,N-diethyl-N-methyl-ammonium)ethyl]-7-methoxy-4-methylcoumarin inhibited to (CYP2D6): 40%
- inhibition in reaction with dextromethorphan (CYP2D6): < 5%
- IC50 [5]: 1.6 to 133 µM
